In US20230255938A1, “COMPOSITION FOR INHIBITING SEBUM SECRETION COMPRISING FABP4 INHIBITOR” (THE INDUSTRY & ACADEMIC COOPERATION IN CHUNGNAM NATIONAL …, priority 2022, published 2023):

Assays:
Format in all cases: cell-based
[1] = test system: PPAR-γ; experiment: Western blotting of PPAR-γ in IGF-1-treated immortalized human sebocytes; settings: 1, 2 or 5 μM BMS309403 for 1 hour, then 50 ng/mL IGF-1; Western blot, FIG. 1 upper left
Procedure: (§1) Immortalized human sebocytes were used for the experiment. The cell lines were established as previously described. All procedures were approved by the Institutional Committee of Chungnam National University Hospital. The immortalized human sebocytes were cultured in Sebomed medium (Biochrom, Berlin, Germany) supplemented with 10% fetal bovine serum (Gibco BRL, Rockville, Md., USA) and 5 ng/mL of recombinant human EGF (Invitrogen, Grand Island, N.Y., USA).
(§2) After harvesting, the cells were lysed in protein extraction solution (Intron, Daejeon, Korea). Equal amounts of protein were then loaded and separated by […], and then the proteins were transferred onto nitrocellulose membranes (Pall Corp., Port Washington, N.Y., USA). After blocking with 5% skim milk, the membranes were incubated with various primary antibodies. The blot was reacted with a secondary antibody conjugated with peroxidase, and were visualized for specific proteins with ECL (BIOMAX, Seoul, Korea). The primary antibodies used in western blot analysis were as follows: Actin, SREBP-1(Santa Cruz, Calif.), PPAR-γ, phospho-IGFR (p-IGFR), phospho-Akt (Cell Signaling Technology, Danvers, Mass.)
(§3) The effect of BMS309403 on IGF-1-induced lipid synthesis was measured using an immortalized human sebaceous cell line established in a previous study. Immortalized human sebocytes were treated with 1, 2 or 5 μM of BMS309403. […]

[2] = test system: immortalized human sebocytes; experiment: TLC of intracellular lipids (14C-acetate), IGF-1-induced lipid synthesis; settings: 1, 2 or 5 μM; TLC 48 hours after IGF-1 (50 ng/mL) treatment; FIG. 1 right
Procedure: as §1
For quantitative analysis of intracellular lipids, the present invention used the TLC method as used in previous studies. Briefly, immortalized human sebocytes were cultured in a medium containing 2 μCi of ^14C-acetate and sodium salt (PerkinElmer, Boston, Mass., USA) and allowed to react for 4 hours. Intracellular lipids were extracted with chloroform and methanol (2:1, v/v). The solvent was evaporated and the lipid was resuspended in chloroform. TLC (TLC silica gel 60 F254, Merck KgaA) was used to separate intracellular lipids. After development with hexane and ethyl acetate (6:1, v/v), intracellular lipids were visualized by radioactivity measurement.
The effect of BMS309403 on IGF-1-induced lipid synthesis was measured using an immortalized human sebaceous cell line established in a previous study. Immortalized human sebocytes were treated with 1, 2 or 5 μM of BMS309403. After treatment with BMS309403 for 1 hour, sebocytes were treated with 50 ng/mL of IGF-1 to induce differentiation and lipid synthesis.
IGF-1 increased the Intracellular lipid synthesis such as cholesterol, triglycerides, wax esters and squalene in immortalized human sebocytes.

[3] = test system: SREBP-1; experiment: Western blotting of SREBP-1 in IGF-1-treated immortalized human sebocytes; settings: 1, 2 or 5 μM BMS309403 for 1 hour, then 50 ng/mL IGF-1; Western blot, FIG. 1 upper left
Procedure: as §1, §2, §3

[4] = test system: phospho-Akt; experiment: Western blotting of phospho-Akt in IGF-1-treated immortalized human sebocytes; settings: 1, 2 or 5 μM BMS309403 for 1 hour, then 50 ng/mL IGF-1; Western blot, FIG. 1 lower left
Procedure: as §1, §2, §3

[5] = test system: phospho-IGFR (p-IGFR); experiment: Western blotting of phospho-IGFR in IGF-1-treated immortalized human sebocytes; settings: 1, 2 or 5 μM BMS309403 for 1 hour, then 50 ng/mL IGF-1; Western blot, FIG. 1 lower left
Procedure: as §1, §2, §3

CCc1c(-c2ccccc2)c(-c2ccccc2)nn1-c1ccccc1-c1cccc(OCC(=O)O)c1 [BMS309403]
level of PPAR-γ (transcription factor related to sebocyte differentiation) [1]: decreased their levels in a dose-dependent manner
IGF-1-induced lipid synthesis (cholesterol, triglycerides, wax esters and squalene) [2]: reduced IGF-1-induced lipid synthesis
intracellular lipid accumulation [2]: reduced intracellular lipid accumulation in a dose-dependent manner
synthesis of squalene [2]: significantly reduced
synthesis of wax esters [2]: significantly reduced
level of SREBP-1 (transcription factor related to sebocyte differentiation) [3]: decreased their levels in a dose-dependent manner
phosphorylation of Akt [4]: markedly reduced phosphorylation of IGFR and Akt in a dose-dependent manner
phosphorylation of IGFR [5]: markedly reduced phosphorylation of IGFR and Akt in a dose-dependent manner
